Measured values as given in the supplement of paper PMC11208160.

Assay: recombinant UMI read abundance after kanamycin selection (control-corrected) (log10(CPM+1)); higher = more efficient recombination; extreme values may be limits of the assay; sequences stand for … in AGTGCAGAGAAAATCGGCCAGTTTTCTCTGCCTGCAGTCCGCATGCCGTGGGACCCCTTGGGTTCTAACCTGTTGCCTAGATTTATGCAGCGGACTGCCTTTCTCCCAAAGTGATAAACCGG…AGGTTGGTTTCACT; site = the 11-nt donor
In short: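 In a pooled Escherichia coli screen for the IS621 bridge recombinase, donor and donor-binding-loop pairs were each placed with a 12-nt UMI on a plasmid bearing a promoterless kanamycin gene. This library was co-electroporated with a target plasmid encoding a fixed target and T7-inducible recombinase, and cells were plated either on IPTG (0.07 mM) plus kanamycin or without selection, in two replicates each. Recombinant UMIs were PCR-amplified across the donor–target junction and sequenced, and counts were converted to CPM, averaged over replicates, scaled by control-derived factors and reported as log10(CPM+1).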
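Further: IS621 bridge recombinase in Escherichia coli cells against a fixed T5 target plasmid.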

Sequence | recombinant UMI read abundance (log10)
TCGCACACATGGACCGGTTTTCCCGGTAATCCGTATTTGCG (site TCGCACACTCG) | 0.00409
TCGCCTACATGGACCGGTTTTCCCGGTAATCCGTATTTGTG (site TCGCCTACTCA) | 0.00919
TCGGCTACATGGACCGGTTTTCCCGGTAATCCGTATTTGCC (site TCGGCTACTGG) | 0
TCGGGCGCATGGACCGGTTTTCCCGGTAATCCGTATTTGTC (site TCGGGCGCTGA) | 2.19
TCGGGTGCATGGACCGGTTTTCCCGGTAATCCGTATTTGGA (site TCGGGTGCTTC) | 0.157
TCGGTTACATGGACCGGTTTTCCCGGTAATCCGTATTTGTT (site TCGGTTACTAA) | 0.835
TCGTACTCATGGACCGGTTTTCCCGGTAATCCGTATTTGCA (site TCATACTCTTG) | 2.44
TCGTACTCATGGACCGGTTTTCCCGGTAATCCGTATTTGCA (site TCCTACTCTTG) | 2.28
TCGTACTCATGGACCGGTTTTCCCGGTAATCCGTATTTGCA (site TCGTACTCTTG) | 2.38
TCGTACTCATGGACCGGTTTTCCCGGTAATCCGTATTTGCA (site TCTTACTCTTG) | 2.29
TCGTCATCATGGACCGGTTTTCCCGGTAATCCGTATTTGAC (site TCGTCATCTGT) | 0
TCGTCGCCATGGACCGGTTTTCCCGGTAATCCGTATTTGCA (site TCGTCGCCTTG) | 0.00504
TCGTTAGCATGGACCGGTTTTCCCGGTAATCCGTATTTGTG (site ACGTTAGCTCA) | 0.00928
TCGTTAGCATGGACCGGTTTTCCCGGTAATCCGTATTTGTG (site CCGTTAGCTCA) | 0
TCGTTAGCATGGACCGGTTTTCCCGGTAATCCGTATTTGTG (site GCGTTAGCTCA) | 0.109
TCGTTAGCATGGACCGGTTTTCCCGGTAATCCGTATTTGTG (site TCGTTAGCTCA) | 0.255
TCGTTGTCATGGACCGGTTTTCCCGGTAATCCGTATTTGAA (site TCGTTGTCTTT) | 0.876
TCGTTGTCATGGACCGGTTTTCCCGGTAATCCGTATTTGTC (site TCGTTGTCTGA) | 0.41
TCGTTTACATGGACCGGTTTTCCCGGTAATCCGTATTTGCT (site ACGTTTACTAG) | 0
TCGTTTACATGGACCGGTTTTCCCGGTAATCCGTATTTGCT (site CCGTTTACTAG) | 0
TCGTTTACATGGACCGGTTTTCCCGGTAATCCGTATTTGCT (site GCGTTTACTAG) | 0
TCGTTTACATGGACCGGTTTTCCCGGTAATCCGTATTTGCT (site TCGTTTACTAG) | 1.68
TCTAACACATGGACCGGTTTTCCCGGTAATCCGTATTTGTC (site TCTAACACTGA) | 0

Sequence | recombinant UMI read abundance (log10)
TCTAATACATGGACCGGTTTTCCCGGTAATCCGTATTTGGC (site ACTAATACTGC) | 0
TCTAATACATGGACCGGTTTTCCCGGTAATCCGTATTTGGC (site CCTAATACTGC) | 0
TCTAATACATGGACCGGTTTTCCCGGTAATCCGTATTTGGC (site GCTAATACTGC) | 0
TCTAATACATGGACCGGTTTTCCCGGTAATCCGTATTTGGC (site TCTAATACTGC) | 0
TCTAATACATGGACCGGTTTTCCCGGTAATCCGTATTTGGT (site TCTAATACTAC) | 0.0331
TCTAATTCATGGACCGGTTTTCCCGGTAATCCGTATTTGCC (site TCAAATTCTGG) | 0
TCTAATTCATGGACCGGTTTTCCCGGTAATCCGTATTTGCC (site TCCAATTCTGG) | 0
TCTAATTCATGGACCGGTTTTCCCGGTAATCCGTATTTGCC (site TCGAATTCTGG) | 0
TCTAATTCATGGACCGGTTTTCCCGGTAATCCGTATTTGCC (site TCTAATTCTGG) | 0
TCTACCGCATGGACCGGTTTTCCCGGTAATCCGTATTTGCG (site TCAACCGCTCG) | 0.00715
TCTACCGCATGGACCGGTTTTCCCGGTAATCCGTATTTGCG (site TCCACCGCTCG) | 0.0035
TCTACCGCATGGACCGGTTTTCCCGGTAATCCGTATTTGCG (site TCGACCGCTCG) | 0.0889
TCTACCGCATGGACCGGTTTTCCCGGTAATCCGTATTTGCG (site TCTACCGCTCG) | 0.0133
TCTAGAACATGGACCGGTTTTCCCGGTAATCCGTATTTGTC (site TCTAGAACTGA) | 0
TCTAGGCCATGGACCGGTTTTCCCGGTAATCCGTATTTGGA (site TCTAGGCCTTC) | 0.0125
TCTAGTGCATGGACCGGTTTTCCCGGTAATCCGTATTTGGT (site ACTAGTGCTAC) | 0.0111
TCTAGTGCATGGACCGGTTTTCCCGGTAATCCGTATTTGGT (site CCTAGTGCTAC) | 0.229
TCTAGTGCATGGACCGGTTTTCCCGGTAATCCGTATTTGGT (site GCTAGTGCTAC) | 0
TCTAGTGCATGGACCGGTTTTCCCGGTAATCCGTATTTGGT (site TCTAGTGCTAC) | 0.0256
TCTATAACATGGACCGGTTTTCCCGGTAATCCGTATTTGGG (site TCTATAACTCC) | 0.0262
TCTATAGCATGGACCGGTTTTCCCGGTAATCCGTATTTGAC (site TCTATAGCTGT) | 0
TCTGAAGCATGGACCGGTTTTCCCGGTAATCCGTATTTGGT (site TCTGAAGCTAC) | 0.00288
TCTGAATCATGGACCGGTTTTCCCGGTAATCCGTATTTGAC (site TCTGAATCTGT) | 0

Sequence | recombinant UMI read abundance (log10)
TCTGCGGCATGGACCGGTTTTCCCGGTAATCCGTATTTGAT (site TCTGCGGCTAT) | 0.0332
TCTGCGGCATGGACCGGTTTTCCCGGTAATCCGTATTTGTT (site TCTGCGGCTAA) | 0.0132
TCTGTTCCATGGACCGGTTTTCCCGGTAATCCGTATTTGAG (site TCTGTTCCTCT) | 0.0103
TCTTAAACATGGACCGGTTTTCCCGGTAATCCGTATTTGCA (site TCTTAAACTTG) | 0
TCTTACACATGGACCGGTTTTCCCGGTAATCCGTATTTGCC (site TCTTACACTGG) | 0.565
TCTTCAGCATGGACCGGTTTTCCCGGTAATCCGTATTTGTG (site TCTTCAGCTCA) | 0.0132
TCTTCATCATGGACCGGTTTTCCCGGTAATCCGTATTTGTA (site TCTTCATCTTA) | 0.00251
TCTTTCTCATGGACCGGTTTTCCCGGTAATCCGTATTTGCT (site TCTTTCTCTAG) | 0
TGAAAATCATGGACCGGTTTTCCCGGTAATCCGTATTTGTG (site TGAAAATCTCA) | 1
TGAAGGACATGGACCGGTTTTCCCGGTAATCCGTATTTGAC (site TGAAGGACTGT) | 2.4
TGAATAACATGGACCGGTTTTCCCGGTAATCCGTATTTGCA (site TGAATAACTTG) | 1.38
TGACCGACATGGACCGGTTTTCCCGGTAATCCGTATTTGAT (site TGACCGACTAT) | 0.561
TGAGAGACATGGACCGGTTTTCCCGGTAATCCGTATTTGCG (site TAAGAGACTCG) | 2.07
TGAGAGACATGGACCGGTTTTCCCGGTAATCCGTATTTGCG (site TCAGAGACTCG) | 0.426
TGAGAGACATGGACCGGTTTTCCCGGTAATCCGTATTTGCG (site TGAGAGACTCG) | 2.22
TGAGAGACATGGACCGGTTTTCCCGGTAATCCGTATTTGCG (site TTAGAGACTCG) | 1.19
TGAGGTGCATGGACCGGTTTTCCCGGTAATCCGTATTTGGT (site TGAGGTGCTAC) | 0.98
TGAGGTTCATGGACCGGTTTTCCCGGTAATCCGTATTTGAC (site TGAGGTTCTGT) | 2.17
TGAGTCGCATGGACCGGTTTTCCCGGTAATCCGTATTTGTG (site TGAGTCGCTCA) | 0.474
TGATAATCATGGACCGGTTTTCCCGGTAATCCGTATTTGCT (site CGATCATCTAG) | 0
TGATAATCATGGACCGGTTTTCCCGGTAATCCGTATTTGCT (site TGATAATCTAG) | 2.45
TGATTCCCATGGACCGGTTTTCCCGGTAATCCGTATTTGAC (site TGATTCCCTGT) | 0.794
